What is called IC50 is the concentration needed to halve the response being measured.

A value given as a limit tells only on which side of the number the result lay.

One test concerns the target T1, mGAT4 (Mus musculus, UniProt P31650).
T1 sequence (P31650 1-627): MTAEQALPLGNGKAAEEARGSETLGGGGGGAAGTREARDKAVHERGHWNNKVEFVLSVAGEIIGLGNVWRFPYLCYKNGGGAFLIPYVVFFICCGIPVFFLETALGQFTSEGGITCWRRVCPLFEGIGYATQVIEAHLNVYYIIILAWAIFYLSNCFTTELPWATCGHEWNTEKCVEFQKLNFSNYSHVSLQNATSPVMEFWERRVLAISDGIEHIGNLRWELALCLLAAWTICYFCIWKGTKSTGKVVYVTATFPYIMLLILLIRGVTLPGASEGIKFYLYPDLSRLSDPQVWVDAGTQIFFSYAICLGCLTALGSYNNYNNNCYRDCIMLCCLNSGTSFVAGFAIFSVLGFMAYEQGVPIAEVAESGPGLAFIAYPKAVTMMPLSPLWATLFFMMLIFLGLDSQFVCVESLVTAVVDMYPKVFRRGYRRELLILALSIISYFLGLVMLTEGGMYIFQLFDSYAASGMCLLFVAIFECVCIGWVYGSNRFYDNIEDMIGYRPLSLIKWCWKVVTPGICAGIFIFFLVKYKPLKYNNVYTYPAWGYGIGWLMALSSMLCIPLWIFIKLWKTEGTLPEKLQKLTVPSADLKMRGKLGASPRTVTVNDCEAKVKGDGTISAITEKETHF
The test is described as follows: [3H]GABA uptake assay, mGAT4. The class given is cell-based. The following applies: GABA uptake assay; mGAT4 corresponds to GAT3; read-out: mGAT4 IC50.

The target in test [1] is T2, mGAT1 (Mus musculus, UniProt P31648). The test is described as follows: [3H]GABA uptake assay, mGAT1. Format: cell-based. The following applies: GABA uptake assay; read-out: mGAT1 IC50.
The target of a further test is T3, eeAChE (Electrophorus electricus, UniProt O42275).
T3 construct: purchased Sigma-Aldrich
The test is described as follows: Cholinesterase inhibition, Ellman's protocol, eeAChE. Format: biochemical. The conditions noted are these: read-out: eeAChE % inh. On the technique in general: Ellman's reagent forms a yellow product with free thiols.

The target of the next test is T4, eqBuChE (Equus caballus, UniProt P81908).
T4 construct: purchased Sigma-Aldrich
The test is described as follows: biochemical. The conditions noted are these: means±SEM of at least three experiments.

Test [2] deals with T5, human butyrylcholinesterase (hBuChE) (Homo sapiens, UniProt P06276).
T5 construct: from human plasma was from Vivonics (Bedford, MA, USA); purchased Vivonics (Bedford, MA, USA); host or cells: human plasma
The test is described as follows: biochemical. The following applies: for IC50: means±SEM of at least three experiments; for inhibition at 1 µM: inhibitor concentration 1 μM, read-out: hBuChE % inh.

The target of test [3] is T2, mGAT1. The test is described as follows: MS Binding Assay with NO 711 as marker. The following applies: for Ki: MS Binding Assay, NO 711 marker, read-out: pKi ± SEM toward mGAT1 (converted); for percent of remaining NO711 binding, mGAT1: 100 μM inhibitor.
The target in another test is T6, mGAT3 (Mus musculus, UniProt P31649).
T6 sequence (P31649 1-602): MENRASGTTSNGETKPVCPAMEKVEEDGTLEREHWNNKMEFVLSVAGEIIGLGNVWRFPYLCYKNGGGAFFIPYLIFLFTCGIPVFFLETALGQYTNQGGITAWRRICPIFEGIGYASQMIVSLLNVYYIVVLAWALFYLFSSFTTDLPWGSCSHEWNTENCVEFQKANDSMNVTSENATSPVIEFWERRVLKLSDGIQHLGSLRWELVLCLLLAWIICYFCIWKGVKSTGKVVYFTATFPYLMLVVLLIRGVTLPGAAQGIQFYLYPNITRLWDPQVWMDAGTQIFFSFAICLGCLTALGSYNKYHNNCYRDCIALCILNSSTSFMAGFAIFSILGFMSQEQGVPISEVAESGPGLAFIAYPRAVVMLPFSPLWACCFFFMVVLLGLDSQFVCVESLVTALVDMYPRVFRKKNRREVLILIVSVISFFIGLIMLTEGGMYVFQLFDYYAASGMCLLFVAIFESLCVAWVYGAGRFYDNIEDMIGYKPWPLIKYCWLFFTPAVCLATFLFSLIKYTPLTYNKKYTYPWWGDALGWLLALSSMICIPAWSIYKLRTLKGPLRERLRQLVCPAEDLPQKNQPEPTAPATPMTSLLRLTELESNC
The test is described as follows: [3H]GABA uptake assay, mGAT3. The class given is cell-based. The following applies: GABA uptake assay; read-out: mGAT3 IC50.

Another test addresses T7, mGAT2 (Mus musculus, UniProt P31651).
T7 sequence (P31651 1-614): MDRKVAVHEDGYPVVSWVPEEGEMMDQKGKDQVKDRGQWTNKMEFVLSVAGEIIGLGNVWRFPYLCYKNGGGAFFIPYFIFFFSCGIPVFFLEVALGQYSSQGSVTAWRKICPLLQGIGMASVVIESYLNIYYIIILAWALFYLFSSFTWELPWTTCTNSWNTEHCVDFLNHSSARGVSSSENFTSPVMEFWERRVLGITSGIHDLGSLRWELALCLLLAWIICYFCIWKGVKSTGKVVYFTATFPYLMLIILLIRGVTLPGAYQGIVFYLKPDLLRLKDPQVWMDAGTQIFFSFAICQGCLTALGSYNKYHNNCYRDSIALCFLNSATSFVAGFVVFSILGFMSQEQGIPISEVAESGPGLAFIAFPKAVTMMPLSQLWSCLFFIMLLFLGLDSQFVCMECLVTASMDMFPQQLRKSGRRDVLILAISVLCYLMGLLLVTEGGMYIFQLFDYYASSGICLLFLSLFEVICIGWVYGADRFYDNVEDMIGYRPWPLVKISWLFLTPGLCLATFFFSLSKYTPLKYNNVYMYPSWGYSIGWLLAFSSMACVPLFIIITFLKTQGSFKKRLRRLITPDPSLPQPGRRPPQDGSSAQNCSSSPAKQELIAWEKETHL
The test is described as follows: [3H]GABA uptake assay, mGAT2. The class given is cell-based. The conditions noted are these: GABA uptake assay; read-out: mGAT2 IC50.

Test [4] concerns the target T8, human serotonin 5-HT6 receptor (Homo sapiens, UniProt P50406).
T8 construct: host or cells: 1321N1
The test is described as follows: cAMP 5-HT6 functional assay. The class given is cell-based. The conditions noted are these: % of maximal antagonist response (SB258585 10^-5M); 22 nM serotonin.
Experimental: Functional assays for 5-HT6 receptor
Test compounds were dissolved in dimethyl sulfoxide (DMSO) at a concentration of 10 mM.
Serial dilutions were prepared in a 96-well microplate in assay buffer, and 8 concentrations
were tested. For the 5-HT6, adenylyl cyclase activity was monitored using cryopreserved
cells were resuspended in stimulation buffer (HBSS, 5 mM HEPES, 0.5 IBMX, and 0.1%
BSA at pH 7.4) at 2x10^5 cells/ml. The same volume (10 μl) of cell suspension was added to
the tested compounds. Samples were loaded onto a white opaque half-area 96-well
reference agonist for the 5-HT6 receptor. The agonist and antagonist were added
simultaneously. Cell stimulation was performed for 30 minutes at room temperature. After
incubation, cAMP measurements were performed with homogeneous TR-FRET immunoassay
using the LANCE Ultra cAMP kit (PerkinElmer, USA). The volume of 10 μl of EucAMP
Tracer Working Solution and 10 μl of ULight-anti-cAMP Tracer Working Solution were
added, mixed, and incubated for 1 h. The TR-FRET signal was read on an EnVision
microplate reader (PerkinElmer, USA). IC 50 and EC 50 were determined by nonlinear
regression analysis using GraphPad Prism 9.0 software.

T4 sequence (P81908 whole entry): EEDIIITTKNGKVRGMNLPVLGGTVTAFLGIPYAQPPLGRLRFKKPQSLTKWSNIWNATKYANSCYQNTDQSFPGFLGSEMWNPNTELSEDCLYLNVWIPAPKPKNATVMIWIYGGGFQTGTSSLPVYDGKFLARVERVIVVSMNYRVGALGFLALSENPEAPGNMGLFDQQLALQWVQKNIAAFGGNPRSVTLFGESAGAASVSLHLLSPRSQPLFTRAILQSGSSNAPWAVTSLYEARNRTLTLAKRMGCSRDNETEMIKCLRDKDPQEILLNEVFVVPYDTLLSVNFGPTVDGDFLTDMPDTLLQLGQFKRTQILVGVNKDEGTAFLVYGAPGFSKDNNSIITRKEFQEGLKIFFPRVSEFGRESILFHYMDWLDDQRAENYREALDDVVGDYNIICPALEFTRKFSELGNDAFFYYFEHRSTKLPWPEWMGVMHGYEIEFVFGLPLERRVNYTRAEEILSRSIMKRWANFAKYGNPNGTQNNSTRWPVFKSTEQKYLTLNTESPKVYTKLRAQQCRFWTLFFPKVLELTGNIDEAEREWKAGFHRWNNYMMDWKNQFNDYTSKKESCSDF
T5 sequence (P06276 29-602): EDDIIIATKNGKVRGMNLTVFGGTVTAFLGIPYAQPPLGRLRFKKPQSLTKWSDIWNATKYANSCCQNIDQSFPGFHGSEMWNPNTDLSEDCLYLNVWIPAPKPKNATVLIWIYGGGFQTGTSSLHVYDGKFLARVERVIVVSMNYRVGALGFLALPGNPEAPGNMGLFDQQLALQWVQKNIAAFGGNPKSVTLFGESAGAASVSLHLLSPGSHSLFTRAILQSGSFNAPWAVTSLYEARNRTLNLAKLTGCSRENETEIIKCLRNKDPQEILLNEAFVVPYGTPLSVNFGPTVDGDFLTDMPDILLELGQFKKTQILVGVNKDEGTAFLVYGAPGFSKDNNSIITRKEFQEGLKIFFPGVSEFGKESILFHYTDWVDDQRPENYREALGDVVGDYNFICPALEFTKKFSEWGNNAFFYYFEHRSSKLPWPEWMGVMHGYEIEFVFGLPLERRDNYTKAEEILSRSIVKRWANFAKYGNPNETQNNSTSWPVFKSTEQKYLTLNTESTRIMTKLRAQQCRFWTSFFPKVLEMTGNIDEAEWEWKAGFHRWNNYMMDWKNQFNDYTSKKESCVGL
T3 sequence (O42275 24-633): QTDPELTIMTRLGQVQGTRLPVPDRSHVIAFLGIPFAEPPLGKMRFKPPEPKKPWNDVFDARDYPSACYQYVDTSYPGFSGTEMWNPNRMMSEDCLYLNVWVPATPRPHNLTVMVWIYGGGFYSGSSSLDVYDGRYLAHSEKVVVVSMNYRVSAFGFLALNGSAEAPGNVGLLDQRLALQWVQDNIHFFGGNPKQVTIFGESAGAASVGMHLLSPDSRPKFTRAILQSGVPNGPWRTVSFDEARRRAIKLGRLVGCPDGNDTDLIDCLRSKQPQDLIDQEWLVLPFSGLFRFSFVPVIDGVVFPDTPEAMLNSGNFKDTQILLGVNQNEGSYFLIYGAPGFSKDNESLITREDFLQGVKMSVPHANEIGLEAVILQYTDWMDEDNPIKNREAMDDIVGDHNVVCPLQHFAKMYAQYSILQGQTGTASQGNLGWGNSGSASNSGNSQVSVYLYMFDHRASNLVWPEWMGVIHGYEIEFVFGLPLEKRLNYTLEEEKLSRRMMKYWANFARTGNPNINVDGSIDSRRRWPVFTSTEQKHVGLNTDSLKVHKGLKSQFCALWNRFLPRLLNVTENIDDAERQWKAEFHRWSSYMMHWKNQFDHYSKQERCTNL
T8 sequence (P50406 whole entry): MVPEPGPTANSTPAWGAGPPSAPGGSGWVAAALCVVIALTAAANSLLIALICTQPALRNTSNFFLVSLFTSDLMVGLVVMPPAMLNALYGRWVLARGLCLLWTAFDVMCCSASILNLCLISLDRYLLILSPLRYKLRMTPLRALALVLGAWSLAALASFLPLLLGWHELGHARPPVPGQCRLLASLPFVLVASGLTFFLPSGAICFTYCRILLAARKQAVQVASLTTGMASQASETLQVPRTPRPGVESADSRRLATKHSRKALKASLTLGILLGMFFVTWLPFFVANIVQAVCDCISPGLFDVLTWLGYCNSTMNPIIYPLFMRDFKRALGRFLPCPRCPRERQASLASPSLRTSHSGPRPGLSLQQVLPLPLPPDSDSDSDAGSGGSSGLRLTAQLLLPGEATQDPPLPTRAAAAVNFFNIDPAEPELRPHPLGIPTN
Experimental for eeAChE: In vitro pharmacological assays.
The in vitro inhibitory activity toward cholinesterases (eeAChE, eqBuChE,
The target compounds were tested for their inhibitory potency against cholinesterases using
Ellman’s protocol[32] modified for 96-well microplates.
The stock solutions of the
target compounds were prepared in DMSO and diluted with water, giving the desired final
concentrations. The enzymes were prepared as 5 U/mL aqueous stock solutions and diluted
(AChE or BuChE) were added to the reaction mixture in the wells, containing 25 μL of the
target compound (in case of blank samples – water or water/DMSO mixture), 200 μL of 0.1
M phosphate buffer (pH = 8.0) and 20 μL of 5,5'-dithiobis-(2-nitrobenzoic acid) DTNB
All those reagents were preincubated for 5 min at 25 °C for the reactions with the
animal enzymes (eeAChE or eqBuChe) and 36 °C for the human enzyme ( hBuChE) tests. The
enzymatic reaction was initiated by the addition of 20 μL of substrate acetylthiocholine iodide
using the EnSpire multimode microplate reader (PerkinElmer, Waltham, MA, USA). Target
compounds were tested at the screening concentrations of 10 μM or 1 µM for inhibitory
potencies towards animal cholinesterases or human enzyme, respectively. Percent of enzyme
inhibition was calculated based on the formula 100 -(S/B)x100, where S and B were the
respective enzyme activities with and without the test compound, respectively. Compounds
with the enzyme inhibitory activities at 10 μM better than 50% ( eeAChE or eqBuChe) and at
were based on the absorbance measured at seven different inhibitor concentrations, then
percentages of enzymes’ inhibition were plotted against the applied inhibitor concentrations
using nonlinear regression (GraphPad Prism 9; GraphPad Software, San Diego, CA, USA).
All the experiments were performed in
a %inh. at an inhibitor concentration of 10 µM

As for `O[C@H](CNCc1ccccc1)[C@H](Cc1ccccc1)NC1c2ccccc2-c2ccccc21` [Compound 1], the 50% inhibitory concentration (IC50) was 7.76 ± 1.99 µM on mGAT4; 11 µM at mGAT1 [1]; 0.63 ± 0.02 µM against eqBuChE; 0.2 µM in test [2]; 7.08 ± 1.15 µM on mGAT3; 9.77 ± 1.82 µM on mGAT2. For the same compound, the inhibition at 10 µM at eeAChE was under 10%. At mGAT1 [3], the Ki is 49 µM.
For `COc1ccccc1CNC[C@H](O)[C@H](Cc1ccccc1)NC1c2ccccc2-c2ccccc21` [Compound 2], the half-maximal inhibitory concentration (IC50) on mGAT4 is 6.17 ± 0.57 µM; at mGAT1 [1], 6.31 ± 1.02 µM; against eqBuChE it was 0.28 ± 0.01 µM; in [2], 0.27 ± 0.01 µM; at mGAT2 it was 13.2 µM. Besides, the inhibition at 10 µM at eeAChE is under 10%. Further, on mGAT1 [3], the Ki was 33.9 µM.
`COc1cccc(CNC[C@H](O)[C@H](Cc2ccccc2)NC2c3ccccc3-c3ccccc32)c1` [Compound 3]: the IC50 was determined as 7.08 ± 0.49 µM on mGAT4, 7.41 ± 0.34 µM on mGAT1 [1], 2.2 ± 0.1 µM on eqBuChE and 12 µM on mGAT2. Besides, the inhibition at 10 µM on eeAChE is under 10%. For the same compound, the inhibition at 1 µM in test [2] is 67.7%. The Ki at mGAT1 [3] was 30.9 µM.
On to `CC(C)(C)c1cccc(CNC[C@@H](O)[C@H](Cc2ccccc2)NC2c3ccccc3-c3ccccc32)c1` [Compound 4], for which the IC50 on mGAT1 [1] came out at 14.8 µM; against eqBuChE, 0.69 ± 0.04 µM; on mGAT3, 8.91 ± 1.03 µM; on mGAT2 it was 26.3 µM. In addition, the inhibition at 10 µM at eeAChE was under 10%. In test [2], the inhibition at 1 µM is 68%. Moreover, the “percent of remaining NO711 binding, mGAT1” value at mGAT1 [3] was 91%.
On to `O[C@@H](CNCC1CCCCC1)[C@H](Cc1ccccc1)NC1c2ccccc2-c2ccccc21` [Compound 5], for which the inhibition at 10 µM on eeAChE is 19.9%. Besides, the IC50 is 0.96 ± 0.03 µM at eqBuChE, 11.5 µM on mGAT3 and 10.7 µM at mGAT2. The inhibition at 1 µM in [2] is 76.5%. Further, on mGAT1 [3], the “percent of remaining NO711 binding, mGAT1” value was 72%.
Take `COc1ccc(NS(=O)(=O)c2ccc(I)cc2)cc1N1CCN(C)CC1` [SB258585, reference compound]: the “5-HT6 antagonist mode E max %” value in test [4] was 100%.

The record behind these values is article PMC11796312, “Multifunctional, Fluorene‐Based Modulator of Cholinergic and GABAergic Neurotransmission as a Novel Drug Candidate for Palliative Treatment of Alzheimer's Disease” (Angewandte Chemie (International Ed. in English), 2024).
